Measured values reported in publication PMC11533527, “A yeast two-hybrid system to obtain triple-helical ligands from combinatorial random peptide libraries” (The Journal of Biological Chemistry, 2024).
Where no end group is shown, it is not given here.

How the values were obtained:
HSP47 (GAL4-BD-fusion) = assay: Yeast two-hybrid interaction with BD-fusion HSP47 (indicator of triple-helical conformation); format: cell-based, mouse
Excerpt: We expressed (Pro-Gly-Pro)-repeating peptides with a repeat number of 10, 13, or 23, as GAL4-AD-fusion proteins in yeast cells. The lengths of (Pro-Gly-Pro)10, (Pro-Gly-Pro)13, and (Pro-Gly-Pro)23 correspond to those of the N-terminal host, the guest plus the N-terminal host, and the guest plus the N- and C-hosts in the above peptide design (Fig. 1B), respectively. The peptides with fewer (Pro-Gly-Pro)-repeats have lower thermal stability of the triple helices ([19]). We set three different culture temperatures, 16, 30, and 37 °C, with the expectation of identifying the binding of BD-fusion HSP47 to these three peptides with GAL4-AD by the yeast two-hybrid system (Fig. 3). The mated yeast cells were selected by His and Ade auxotrophy in the presence of aureobasidin and X-α-Gal. When HSP47 interacts with the peptides, GAL4-BD and GAL4-AD are brought into proximity to activate the transcription of reporter genes (AUR1-C, ADE2, HIS3, and MEL1). The reporter gene expression allows yeast cells to survive on the plates and turn blue by degrading X-α-Gal. The interaction between HSP47 (bait) and peptides (prey) was detected by the growth of blue colonies on the selection plates. […] HSP47 bound only to (Pro-Gly-Pro)23 in yeast cells at 37 °C. At 30 °C, HSP47 bound to (Pro-Gly-Pro)13 as well as (Pro-Gly-Pro)23, but not to (Pro-Gly-Pro)10. At 16 °C, HSP47 bound to all three of the peptides.
A gene fragment encoding full-length mature mouse PEDF and HSP47 with EcoRI and SalI sites was obtained by PCR amplification, as described in the literature ([15], [45]). The DNA fragments and a pGBKT7 vector were ligated after digestion with EcoRI and SalI and transformed into E. coli HST08 competent cells (TaKaRa, Shiga, Japan). To prepare plasmids encoding PEDF R148A and D255N mutants, inverse PCR was performed with the above GAL4-BD-fused PEDF in a pGBKT7 vector as a template by Primestar MAX (TaKaRa). The PCR product was ligated with Gibson assembly reagents (New England Biolabs, Hertfordshire, UK), followed by transformation into HST08 competent cells. […]
(§1) Y2H interaction was detected by incubation of the generated diploids on minimal-medium quadruple-dropout (QDO; SD/-Leu-Trp-His-Ade) plates with 40 μg/ml X-α-Gal (FUJIFILM Wako Pure Chemical, Osaka, Japan) and 200 ng/ml aureobasidin A (TaKaRa) (QDOGA) plates and incubated for 3–5 days. Positivity for interaction was recorded upon the generation of yeast colonies that appeared blue.

[1] = test system: full-length mouse PEDF (GAL4-BD-fusion); assay: Yeast two-hybrid interaction of AD-fusion peptides with BD-fusion WT-PEDF; format: cell-based; settings: yeast diploids cultured at 25 °C for 5 days
Excerpt: To determine whether the peptides with the obtained sequences bind to PEDF in the same manner as the native PEDF-binding sequence, α1(I)930–938, we examined independent two-hybrid interactions of the three peptides and their mutants in which Arg at Yaa4 was substituted with Ala. […] We also examined the binding of the peptides to collagen-binding-null or heparin-binding-null PEDF mutants that we already reported ([33]). […] Meanwhile, the interaction was not observed for the peptide with the 1-2 sequence, probably because Cys at Xaa9 led to weaker interaction with PEDF than Leu ([15]). […] By contrast, the interactions were maintained using heparin-binding-null PEDF mutant (PEDF R148A) as a bait protein.
The bait and prey plasmids were transformed into S. cerevisiae Y2H gold (MATa, trp1-901, leu2-3, 112, ura3-52, his3-200, gal4Δ, gal80Δ, LYS2::GAL1UAS-Gal1TATA-His3, GAL2UAS-Gal2TATA-Ade2, URA3::MEL1UAS-Mel1TATA, AUR1-C MEL1; TaKaRa) and Y187 strains (MATα, ura3-52, his3-200, ade2-101, trp1-901, leu2-3, 112, gal4Δ, gal80Δ, met-, URA3::GAL1UAS-Gal1TATA-LacZ, MEL1; TaKaRa), in accordance with the manufacturer’s protocol. They were incubated on SD/-Trp and SD/-Leu plates, respectively, at 30 °C for 4–5 days for the selection of transformed clones.
Diploids were prepared by mixing them on yeast peptone dextrose adenine (YPDA) plates. After incubation at 30 °C overnight, they were spread on minimal-medium double-dropout (DDO; SD/-Leu-Trp) plates and incubated at 30 °C for 2–3 days for the selection of diploids.
as §1

| Substance | Two-hybrid interaction with HSP47 (HSP47 (GAL4-BD-fusion); cultured at 30 °C for 3 days) | Two-hybrid interaction with BD-fusion WT-PEDF (blue colonies on QDOGA plates) [1] | Two-hybrid interaction with HSP47 (HSP47 (GAL4-BD-fusion); cultured at 37 °C for 3 days) |
| --- | --- | --- | --- |
| (Pro-Gly-Pro)10 [GAL4-AD-fusion (Pro-Gly-Pro)10] | not | – | – |
| (Pro-Gly-Pro)10-Lys-Gly-His-Arg-Gly-Phe-Ser-Gly-Leu-(Pro-Gly-Pro)10 [α1(I)930–938] | – | observed | – |
| (Pro-Gly-Pro)13 [GAL4-AD-fusion (Pro-Gly-Pro)13] | bound | – | – |
| (Pro-Gly-Pro)23 [GAL4-AD-fusion (Pro-Gly-Pro)23] | bound | – | bound |
| KGCRGLHGL [1-1, GAL4-AD-fusion peptide clone from the random library, flanked by (Pro-Gly-Pro)10 hosts] | – | observed | – |
| RGHRGFLGL [1-3, GAL4-AD-fusion peptide clone from the random library] | – | observed | – |
| RGVRGFEGC [1-2, GAL4-AD-fusion peptide clone from the random library] | – | not observed | – |
